Test results taken from patent EP4755889A1, “COMPOUND FOR DETECTING AMYLOID-BETA OLIGOMER AND METHOD FOR DIAGNOSING DEGENERATIVE BRAIN DISEASE USING SAME” (Amyloid Solution Inc., priority 2024, dated 2025).

How the values were obtained:
[1] = biological target: T1, Aβ1-42 oligomers (Homo sapiens, UniProt P05067); test: Selectivity for blood proteins: Aβ1-42 oligomers; type: binding; conditions: IK15j (25 µM); compared with albumin and fibrinogen
T1 construct: Aβ1-42 peptide was aggregated at 37 °C for 8 hours
T1 sequence (P05067 672-713): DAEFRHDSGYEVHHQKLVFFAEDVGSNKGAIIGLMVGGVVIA
Protocol: Aβ1-42 peptide was aggregated at 37 °C for 8 hours, and 25 µM of Aβ1-42 oligomers, albumin (Sigma-Aldrich, USA), and fibrinogen (Sigma-Aldrich, USA) were seeded into a black microplate. Each sample was treated with IK15j (100 µM) for 8 hours at room temperature. The signal of each sample was detected using a microplate reader (λex = 285 nm / λem = 475 nm).
Excluding water, the solid components of plasma consist of coagulation factors and plasma proteins. Albumin is the most abundant protein in plasma, and fibrinogen is a major coagulation factor in plasma. Considering the possibility that fibrinogen or albumin might interact with AD diagnostic tools and interfere with compound selectivity, IK15j (25 µM) was incubated with Aβ1-42, albumin, or fibrinogen as described in Reference Example 10, and the fluorescence signal of each sample was measured to evaluate the selectivity of the compound of the present disclosure against these proteins.

[2] = system: insoluble plaques in the 5XFAD mouse brain; test: Brain staining of AD mouse model with compound and anti-Aβ antibody 6E10; conditions: 5XFAD brain sections; co-staining with 6E10
Protocol: Mouse brain tissues were fixed in 4 % paraformaldehyde (Biosesang, Korea) at 4 °C overnight and then cryoprotected by immersion in 30 % sucrose for 48 hours. Brain sections (25 µm) were cut using a cryostat (CM1860, Leica) and mounted on slides. The brain tissue sections were treated with the compound of the present disclosure (500 µM) overnight at room temperature. After washing with 1X PBS, antigen retrieval for the fixed brain sections was performed in 1X PBS (Gibco, Korea) containing 1 % SDS (Biosesang, Korea) for 10 minutes, followed by blocking with 20 % horse serum in 1X PBS. After blocking for 1 hour, the slides were incubated with mouse monoclonal antibody 6E10 (1:200, BioLegend, USA) at room temperature for 1 hour. […] After staining the cortical and hippocampal regions of the fixed brain, each brain slide was visualized using a fluorescence microscope (DM500, Leica) equipped with filter cubes containing excitation and emission filters: N2.1 filter cube for detecting 6E10 staining (Excitation filter: BP 515-560; Dichromatic mirror: 580; Emission filter: LP 590) and L5 filter cube for detecting the compound of the present disclosure (Excitation filter: BP 480/40; Dichromatic mirror: 505; Emission filter: BP 527/30). […]

Cc1ccc2c(c1)c(-c1ccccc1)cn1c(C)cc(C#N)c21 [IK15j, 3,8-dimethyl-6-phenylpyrrolo[2,1-a]isoquinoline-1-carbonitrile]
fluorescence intensity in the presence of Aβ1-42 oligomers compared to other proteins [1]: increased markedly
signal in hippocampal and cortical regions (brain staining) [2]: no signal
